# ChEMBL document CHEMBL1128945, “Peptide inhibitors of IKB protease: Modification of the C-termini of Z-LLF-CHO” (Bioorg Med Chem Lett, 1996)
# Square brackets hold non-standard residues; d marks the D form. Peptide text beside a SMILES is read from it. * marks the point of attachment. 1Nal = N[C@@H](Cc1cccc2ccccc12)C(=O)O; 2Nal = N[C@@H](Cc1ccc2ccccc2c1)C(=O)O; Cbz = O=C(OCc1ccccc1)*
# How the values were obtained:
# [1] = Compound was evaluated for its ability to inhibit activation of NFkB protease stably expressed in human Jurkat T-cells; type: cell-based
# Jurkat [2] = test: Ability to decrease IL-2 levels in human Jurkat T-cells; type: functional, cell-based
# Jurkat [3] = test: Ability to decrease IL-8 levels in human Jurkat T-cells; type: functional, cell-based
Compound,IC50 [1] [µM],IC50 (Jurkat [2]) [µM],IC50 (Jurkat [3]) [µM]
CC(C)C[C@H](NC(=O)OCc1ccccc1)C(=O)N[C@@H](CC(C)C)C(=O)N[C@@H](Cc1ccccc1)C(=O)C(F)(F)C(F)(F)F,> 30,–,–
CC(C)C[C@H](NC(=O)OCc1ccccc1)C(=O)N[C@@H](CC(C)C)C(=O)N[C@@H](Cc1ccccc1)C(=O)Nc1ccc(C(F)(F)F)cc1,> 30,–,–
CC(=O)c1cccc(NC(=O)[C@H](CC(C)C)NC(=O)[C@H](CC(C)C)NC(=O)OCc2ccccc2)c1,> 10,–,–
CC(C)C[C@H](NC(=O)OCc1ccccc1)C(=O)N[C@@H](CC(C)C)C(=O)N[C@@H](Cc1ccccc1)C(=O)C(=O)C(=O)OCc1ccccc1,20,–,–
CC(=O)[C@H](Cc1ccccc1)NC(=O)[C@H](CC(C)C)NC(=O)[C@H](CC(C)C)NC(=O)OCc1ccccc1,> 30,–,–
CC(C)CC(NC(=O)OCc1ccccc1)C(=O)NC(CC(C)C)C(=O)NC(C=O)Cc1ccccc1 (stereo not drawn) (Cbz-Leu-Leu-Phe-aldehyde; configuration not given here),2,0.9,2
CC(C)C[C@H](NC(=O)[C@H](Cc1cccc2ccccc12)NC(=O)[C@H](Cc1ccc2ccccc2c1)NC(=O)OCc1ccccc1)C(=O)O (Cbz-[2Nal]-[1Nal]-Leu-OH),3,–,–
CON(C)C(=O)[C@H](Cc1ccccc1)NC(=O)[C@H](CC(C)C)NC(=O)[C@H](CC(C)C)NC(=O)OCc1ccccc1 (stereo in doubt; 4a(L)),18,–,–
CON(C)C(=O)[C@H](Cc1ccccc1)NC(=O)[C@H](CC(C)C)NC(=O)[C@H](CC(C)C)NC(=O)OCc1ccccc1 (stereo in doubt; 4b(D)),> 30,–,–
